Patent publication US20230091047A1 (priority 2019, published 2023)
Where two headings read alike, the source gives them in different places.

What was measured:
in vitro = format: cell-based; details: human, HepG2 or HepG2.117 cells, mean value
Description: Cytotoxicity of the compounds was tested using HepG2 or HepG2.117 cells, incubated for 3 or 4 days in the presence of compounds. The viability of the cells was assessed using the PERKIN ELMER ATPlite Luminescence Assay System.”

[1] = tested on: HBV (HepG2.117 cell line, inducibly HBV producing); experiment: Anti-HBV activity: intracellular HBV DNA by real-time PCR in HepG2.117 cells after 3 days of treatment; format: cell-based, hepatitis B virus
Description: The anti HBV activity was measured using the HepG2.117 cell line, a stable, inducibly HBV producing cell line, which replicates HBV in the absence of doxycycline (Tet-off system). The HepG2 cell line is available from ATCCR under number HB-8065. Transfection of the HepG2 cell line can be as described in Sun and Nassal 2006 Journal of Hepatology 45 (2006) 636-645 “Stable HepG2- and Huh7-based human hepatoma cell lines for efficient regulated expression of infectious hepatitis B virus”.
For the antiviral assay, HBV replication was induced, followed by a treatment with serially diluted compound in 96-well plates. After 3 days of treatment, the antiviral activity was determined by quantification of intracellular HBV DNA using real-time PCR and an HBV specific primer set and probe.

[2] = 3-days incubation (unmarked values), ATPlite
[3] = Hepatitis B virus, HepG2.117, 72 h, HepG2.117 cells, 3 days of treatment, intracellular HBV DNA by real-time PCR; mean value; read-out: EC50 (μM, mean value)
[4] = ATPlite, 3-days incubation (not marked with *)
[5] = Hepatitis B virus, HepG2.117, 72 h, HepG2.117 cells, intracellular HBV DNA by real-time PCR, 3 days of treatment, mean value; read-out: EC50 (μM, mean value)

| Structure (SMILES) | CC50 at 3 days (in vitro; [2]) [µM] | EC50 [1, 3] [µM] | EC50 [1, 5] [µM] | other results |
| --- | --- | --- | --- | --- |
| CNC(=O)c1ccc(-n2c(N[C@H](C)CC(=O)O)nc3c(c2=O)C[C@@H](C)N(C(=O)c2ccc(Cl)c(Cl)c2)C3)cc1 [Compound C336, (3R)-3-({(6R)-7-(3,4-dichlorobenzoyl)-6-methyl-3-[4-(methylcarbamoyl)phenyl]-4-oxo-3,4,5,6,7,8-hexahydropyrido[3,4-d]pyrimidin-2-yl}amino)butanoic acid] | > 50 | 7.66 | – | – |
| COc1ccccc1-n1c(NCc2ccc(F)cc2F)nc2c(c1=O)CCN(C(=O)c1ccc(Cl)c(Cl)c1)C2 [Compound C29, 7-(3,4-dichlorobenzoyl)-2-{[(2,4-difluorophenyl)methyl]amino}-3-(2-methoxyphenyl)-5,6,7,8-tetrahydropyrido[3,4-d]pyrimidin-4(3H)-one] | 23.3 | 7.43 | – | – |
| COC(=O)c1ccc(-n2c(NC(C)CCCCO)nc3c(c2=O)C[C@@H](C)N(C(=O)c2ccc(Cl)c(Cl)c2)C3)cc1OC (stereo partly shown) [Compound C670] | – | – | 0.37 | CC50 at 3 days (in vitro; [4]): > 50 µM |
| CNC(=O)c1ccc(-n2c(NC(C)c3cccs3)nc3c(c2=O)C[C@@H](C)N(C(=O)c2ccc(Cl)c(Cl)c2)C3)cc1 (stereo partly shown) [Compound C550] | – | – | 0.54 | CC50 at 3 days (in vitro; [4]): 30.2 µM |
| CC(C)Nc1nc2c(c(=O)n1-c1ccc(Cl)nc1)C[C@@H](C)N(C(=O)c1ccc(Cl)c(Cl)c1)C2 [Compound C228, (6R)-3-(6-chloropyridin-3-yl)-7-(3,4-dichlorobenzoyl)-6-methyl-2-[(propan-2-yl)amino]-5,6,7,8-tetrahydropyrido[3,4-d]pyrimidin-4(3H)-one] | > 50 | 0.27 | – | – |
| CNC(=O)c1ccc(-n2c(NC(C)C)nc3c(c2=O)C[C@@H](C)N(C(=O)c2ccc(Cl)c(C(F)(F)F)c2)C3)c(Cl)c1 (single isomer, unassigned) [Compound C639a] | – | – | 0.02 | CC50 at 3 days (in vitro; [4]): > 50 µM |
| CNC(=O)c1ccc(-n2c(NC(C)C)nc3c(c2=O)C[C@@H](C)N(C(=O)c2ccc(C#N)c(Cl)c2)C3)cc1 [Compound C508] | – | – | 0.88 | CC50 at 3 days (in vitro; [4]): > 50 µM |
| COc1ccc(CNc2nc3c(c(=O)n2C2CC2)CCN(C(=O)c2ccc(Cl)c(Cl)c2)C3)cc1 [Compound C70, 3-cyclopropyl-7-(3,4-dichlorobenzoyl)-2-{[(4-methoxyphenyl)methyl]amino}-5,6,7,8-tetrahydropyrido[3,4-d]pyrimidin-4(3H)-one] | 23.1 | 10.8 | – | – |
| CNC(=O)c1ccc(-n2c(N[C@@H](C)C3CC3)nc3c(c2=O)C[C@@H](C)N(C(=O)c2ccc(Cl)c(Cl)c2)C3)cc1 [Compound C294, 4-[(6R)-2-{[(1S)-1-cyclopropylethyl]amino}-7-(3,4-dichlorobenzoyl)-6-methyl-4-oxo-5,6,7,8-tetrahydropyrido[3,4-d]pyrimidin-3(4H)-yl]-N-methylbenzamide] | 26.5 | 0.05 | – | – |
| CNC(=O)c1ccc(-n2c(N3CCC[C@@H]3C3CC3)nc3c(c2=O)C[C@@H](C)N(C(=O)c2ccc(Cl)c(Cl)c2)C3)cc1 (single isomer, unassigned) [Compound C352, 4-[(6R)-2-[(2*R)-2-cyclopropylpyrrolidin-1-yl]-7-(3,4-dichlorobenzoyl)-6-methyl-4-oxo-5,6,7,8-tetrahydropyrido[3,4-d]pyrimidin-3(4H)-yl]-N-methylbenzamide] | 27.5 | 0.29 | – | – |
| CNC(=O)c1ccc(-n2c(NC(C)C)nc3c(c2=O)C[C@@H](C)N(C(=O)c2ccc(Cl)c(C(F)F)c2)C3)c(Cl)c1 (single isomer, unassigned) [Compound C685a] | – | – | 0.03 | CC50 at 3 days (in vitro; [4]): > 50 µM |
| CNC(=O)c1ccc(-n2c(N3CCCC3(C)C)nc3c(c2=O)C[C@@H](C)N(C(=O)c2ccc(Cl)c(Cl)c2)C3)cc1 [Compound C307, 4-[(6R)-7-(3,4-dichlorobenzoyl)-2-(2,2-dimethylpyrrolidin-1-yl)-6-methyl-4-oxo-5,6,7,8-tetrahydropyrido[3,4-d]pyrimidin-3(4H)-yl]-N-methylbenzamide] | 28 | 0.09 | – | – |
| COc1ccc(CNc2nc3c(c(=O)n2-c2cc(OC)cc(S(C)(=O)=O)c2)CCN(C(=O)c2ccc(Cl)c(Cl)c2)C3)cc1 [Compound C87, 7-(3,4-dichlorobenzoyl)-3-[3-(methanesulfonyl)-5-methoxyphenyl]-2-{[(4-methoxyphenyl)methyl]amino}-5,6,7,8-tetrahydropyrido[3,4-d]pyrimidin-4(3H)-one] | > 50 | 1.55 | – | – |
| COc1ccc(CN(CCO)c2nc3c(c(=O)[nH]2)CCN(C(=O)c2ccc(Cl)c(Cl)c2)C3)cc1 [Compound C91, 7-(3,4-dichlorobenzoyl)-2-{(2-hydroxyethyl)[(4-methoxyphenyl)methyl]amino}-5,6,7,8-tetrahydropyrido[3,4-d]pyrimidin-4(3H)-one] | 22.2 | 8.92 | – | – |
| CC(C)Nc1nc2c(c(=O)n1-c1ccc(S(C)(=O)=O)cc1)CCN(C(=O)c1ccc3occc3c1)C2 [Compound C132, 7-(1-benzofuran-5-carbonyl)-3-[4-(methanesulfonyl)phenyl]-2-[(propan-2-yl)amino]-5,6,7,8-tetrahydropyrido[3,4-d]pyrimidin-4(3H)-one] | > 50 | 0.7 | – | – |
| COc1ccccc1-n1c(N[C@H](C)c2ccccc2)nc2c(c1=O)CCN(C(=O)c1ccc(Cl)c(Cl)c1)C2 [Compound C44, 7-(3,4-dichlorobenzoyl)-3-(2-methoxyphenyl)-2-{[(1R)-1-phenylethyl]amino}-5,6,7,8-tetrahydropyrido[3,4-d]pyrimidin-4(3H)-one] | 25.3 | 6.99 | – | – |
| COc1ccc(CNc2nc3c(c(=O)n2-c2ccc(-c4ncco4)cc2)CCN(C(=O)c2ccc(Cl)c(Cl)c2)C3)cc1 [Compound C160, 7-(3,4-dichlorobenzoyl)-2-{[(4-methoxyphenyl)methyl]amino}-3-[4-(1,3-oxazol-2-yl)phenyl]-5,6,7,8-tetrahydropyrido[3,4-d]pyrimidin-4(3H)-one] | > 50 | 0.54 | – | – |
| CC(C)Nc1nc2c(c(=O)n1-c1ccc(-c3ccco3)cc1)CCN(C(=O)c1ccc(Cl)c(Cl)c1)C2 [Compound C175, 7-(3,4-dichlorobenzoyl)-3-[4-(furan-2-yl)phenyl]-2-[(propan-2-yl)amino]-5,6,7,8-tetrahydropyrido[3,4-d]pyrimidin-4(3H)-one] | 17 | 1.25 | – | – |
| CNC(=O)c1ccc(-n2c(N[C@@H](C)c3ccc(OC)c(F)c3)nc3c(c2=O)C[C@@H](C)N(C(=O)c2ccc(Cl)c(Cl)c2)C3)cc1 (single isomer, unassigned) [Compound C416b] | – | – | 0.06 | CC50 at 3 days (in vitro; [4]): 34.5 µM |
| Cc1ccncc1-n1c(NC(C)C)nc2c(c1=O)CCN(C(=O)c1ccc(Cl)c(Cl)c1)C2 [Compound C114, 7-(3,4-dichlorobenzoyl)-3-(4-methylpyridin-3-yl)-2-[(propan-2-yl)amino]-5,6,7,8-tetrahydropyrido[3,4-d]pyrimidin-4(3H)-one] | > 50 | 1.78 | – | – |
| CC(C)Nc1nc2c(c(=O)n1-c1ccc(S(C)(=O)=O)cc1)CCN(C(=O)c1cc3ncccc3[nH]1)C2 [Compound C368] | > 50 | – | – | – |
| CNC(=O)c1ccc(-n2c(N[C@@H](C)c3ccc(C(F)(F)F)cc3)nc3c(c2=O)C[C@@H](C)N(C(=O)c2ccc(Cl)c(C(F)(F)F)c2)C3)cc1 [Compound C650] | – | – | 0.05 | – |
| CC(C)Nc1nc2c(c(=O)n1-c1ccc(C(=O)N3CCOCC3)cc1)C[C@@H](C)N(C(=O)c1ccc(Cl)c(C(F)(F)F)c1)C2 [Compound C649] | – | – | – | CC50 at 3 days (in vitro; [4]): > 50 µM |
| CNC(=O)c1ncc(-n2c(NC)nc3c(c2=O)C[C@@H](C)N(C(=O)c2ccc(Cl)c(C(F)(F)F)c2)C3)n1C [Compound C702] | – | – | – | CC50 at 3 days (in vitro; 3-days incubation (unmarked values), ATPlite viability): > 50 µM |
| COc1ccc(CNc2nc3c(c(=O)n2-c2ccc(S(C)(=O)=O)cc2)C[C@H](c2ccc(F)cc2)N(C(=O)c2ccc(Cl)c(Cl)c2)C3)cc1 (single isomer, unassigned) [Compound C109B, (6*R)-7-(3,4-dichlorobenzoyl)-6-(4-fluorophenyl)-3-[4-(methanesulfonyl)phenyl]-2-{[(4-methoxyphenyl)methyl]amino}-5,6,7,8-tetrahydropyrido[3,4-d]pyrimidin-4(3H)-one] | > 50 | – | – | – |
| CNC(=O)c1ccc(-n2c(NCc3cnn(-c4ccccc4)n3)nc3c(c2=O)C[C@@H](C)N(C(=O)c2ccc(Cl)c(Cl)c2)C3)cc1 [Compound C464] | – | – | 0.62 | – |
| CC(C)Nc1nc2c(c(=O)n1-c1ccc(S(C)(=O)=O)cc1)CCN(C(=O)c1cc3cc(Cl)ccc3[nH]1)C2 [Compound C357] | > 50 | – | – | – |
| CNC(=O)c1ccc(-n2c(N[C@@H](C)c3ccc(C(F)(F)F)c(F)c3)nc3c(c2=O)C[C@@H](C)N(C(=O)c2ccc(Cl)c(Cl)c2)C3)cc1 (single isomer, unassigned) [Compound C659b] | – | – | > 2.5 | – |
| CC(C)Nc1nc2c(c(=O)n1-c1ccc(S(C)(=O)=O)cc1)CCN(C(=O)c1cc3cnccc3[nH]1)C2 [Compound C369] | > 50 | – | – | – |
